Tests used:
bladder of normal rats = assay: Cystometry (detrusor muscle contraction pressure measurement) in normal rats; format: in vivo; details: normal male rats, subcutaneous; for bladder contraction pressure during voiding / maximum contraction pressure during voiding: 0 to 90 minutes after administration, acotiamide 30 to 200 mg/kg; for bladder contraction pressure during voiding: distigmine 0.01 to 0.1 mg/kg (FIG. 3); for maximum contraction pressure during voiding: distigmine 0.01 to 0.1 mg/kg (FIG. 4); for bladder compliance: 0 to 90 minutes, acotiamide up to 200 mg/kg, distigmine 0.01 to 0.1 mg/kg (FIG. 6); for tolerability in the cystometry test at the highest dose: highest dose acotiamide 200 mg/kg, distigmine 0.3 mg/kg
Protocol: A polyethylene catheter (PE50) for cystometry was inserted into and indwellingly placed in the bladder of male rats (strain: Crl:CD (SD), 8 weeks old, Jackson Laboratory Japan, Inc.). The catheter indwelling in the bladder was connected to a pressure transducer (Nihon Kohden Corporation) to measure the intravesical pressure. Physiological saline was injected into the bladder using an infusion pump, and changes in intravesical pressure were recorded on a polygraph system (RMT-1000, Nihon Kohden Corporation) and an analysis system (Lab Chart Pro, ADInstruments). Changes in detrusor muscle contraction pressure when distigmine (0.01 to 0.3 mg/kg), acotiamide (3 to 200 mg/kg), or vehicle was subcutaneously administered (5 ml/kg) were measured for 90 minutes.

normal rats = assay: Uroflowmetry (urine flow rate measurement) in normal rats; format: in vivo, rat; details: normal male rats, subcutaneous, measured for 12 hours; acotiamide 30, 100, 200 mg/kg, distigmine 0.1 mg/kg (FIG. 5)
Protocol: Changes in urine flow rate when distigmine (0.1 mg/kg), acotiamide (30, 100, and 200 mg/kg) or vehicle was subcutaneously administered (5 mL/kg) to male rats (strain: Crl:CD (SD), 8 weeks old, Jackson Laboratory Japan, Inc.) were measured for 12 hours. Changes in urine flow rate were recorded using PowerLab (ADInstruments) by placing a digital balance under the voiding measurement cage to cumulatively collect excreted urine in a container on the balance and measure the change in weight.

[1] = tested on: female rats under urethane anesthesia; assay: Test for confirming tolerability: induction of cholinergic crisis; format: in vivo, rat; details: up to 120 minutes; for induction of cholinergic crisis (hypersecretion, respiratory abnormalities): urethane anesthesia, subcutaneous, distigmine 0.1-0.4 mg/kg, acotiamide 200 and 300 mg/kg
urethra of normal rats = assay: Measurement of LPP (urethral pressure) in normal rats; format: in vivo, rat; details: spinal cord transected female rats, subcutaneous; acotiamide 30 to 300 mg/kg, distigmine 0.1 mg/kg, bethanechol 3 mg/kg (FIG. 7)
Protocol: Using female rats (strain: Crl:CD (SD), 9 weeks old, Jackson Laboratory Japan, Inc.), under isoflurane anesthesia, the spinal cord was transected at the Th8 vertebra, and after ligating and excising the ureters, a catheter (Becton Dickinson: PE-90, PE-50) was inserted and fixed at the bladder dome to prepare the measurement animal. Physiological saline was injected from the catheter, and the maximum intravesical pressure (leak point pressure (LPP)) when leaking from the external urethral opening was recorded by PowerLab (ADInstruments). Changes in leak point pressure when distigmine (0.1 mg/kg), bethanechol (3 mg/kg), acotiamide (30 to 300 mg/kg), or a vehicle was subcutaneously administered (5 mL/kg) were measured.

[2] = tested on: bladder of normal guinea pigs; assay: Cystometry and urine flow rate measurement in normal guinea pigs; format: in vivo, guinea pig; details: male guinea pigs, intravenous, 0 to 30 minutes, acotiamide 0.1 to 10 mg/kg; for bladder contraction pressure during voiding: distigmine 1 mg/kg (FIG. 8); for maximum contraction pressure during voiding: distigmine 1 mg/kg (FIG. 9); for urine flow rate (maximum urine flow rate and average urine flow rate): distigmine 1 mg/kg (FIG. 10, FIG. 11)
Protocol: A polyethylene catheter (Becton Dickinson: PE50) was inserted into and fixed to the bladder of a guinea pig (male, strain: Slc: Hartley, 7 weeks old, Japan SLC, Inc.). A catheter indwellingly placed in the bladder was connected to a pressure transducer to measure intravesical pressure. Physiological saline was injected into the bladder using an infusion pump and intravesical pressure was recorded in PowerLab (ADInstruments). The urine flow rate was recorded in PowerLab (ADInstruments) by placing a digital balance under the cage to cumulatively collect excreted urine in a container on the balance and measure the change in weight. Changes in the detrusor muscle contraction pressure and the urine flow rate when distigmine (1 mg/kg), acotiamide (0.1 to 10 mg/kg), or a vehicle was intravenously administered (1 mL/kg) were measured for 30 minutes.

[3] = tested on: pelvic nerve crush (PNC) rats; assay: Cystometry in underactive bladder model (pelvic nerve crush, PNC) rats; format: in vivo, rat; details: PNC female rats, subcutaneous; for detrusor muscle contraction pressure: awake, measured for 60 minutes, acotiamide 30 to 200 mg/kg, distigmine 0.1 mg/kg (FIG. 12); for drug tolerability at the highest dose: highest dose acotiamide 200 mg/kg, distigmine 0.3 mg/kg
Protocol: Under isoflurane anesthesia, female rats (strain: Crl:CD (SD), 8 weeks old, Jackson Laboratory Japan, Inc.) were subjected to pelvic nerve injury surgery to prepare pelvic nerve crush (PNC) rats. Cystometry was performed while awake, 2 to 4 weeks after surgery. A polyethylene catheter (PE50) for cystometry was inserted into the bladder and indwellingly placed. The catheter indwelling in the bladder was connected to a pressure transducer (Nihon Kohden Corporation) to measure the intravesical pressure. Physiological saline was injected into the bladder using an infusion pump, and changes in intravesical pressure were recorded in a polygraph system (RMT-1000, Nihon Kohden Corporation) (RMT-1000 MG, Miyuki Giken Co., Ltd.) and an analysis system (Lab Chart Pro, ADInstruments).
Changes in detrusor muscle contraction pressure when distigmine (0.01 to 0.3 mg/kg), acotiamide (3 to 200 mg/kg), or vehicle was subcutaneously administered (5 mL/kg) to PNC rats were measured for 60 minutes.

[4] = tested on: bladder M3 receptor (Chrm3); assay: Bladder M3 receptor expression (real-time PCR Chrm3, Western blotting CHRM3) after repeated administration; format: in vivo, rat; details: subcutaneous twice daily for two weeks; for Relative gene expression of Chrm3 (Mean ± SE): bladder of normal male rats, real-time PCR, acotiamide 200 mg/kg/day, distigmine 0.2 mg/kg/day; for expression level of the bladder M3 receptor after repeated administration: normal male rats, acotiamide 100 mg/kg, distigmine 0.1 mg/kg per dose (Table 1, FIG. 13)
Protocol: Distigmine (0.1 mg/kg), acotiamide (100 mg/kg), or vehicle was subcutaneously administered twice daily for two weeks (5 mL/kg per dose) to normal rats (male, strain: Crl:CD (SD), 8 weeks old, Jackson Laboratory Japan, Inc.), and the bladder was collected. The M3 receptor expression level in the collected bladder was examined by gene quantitative analysis by real-time PCR (Chrm3) and protein expression analysis by Western blotting (CHRM3).

[5] = tested on: partial BOO rats exhibiting overactive bladder; assay: Cystometry in partial bladder outlet obstruction (BOO) rats: voiding interval and frequency of NVC; format: in vivo, rat; details: for NVC frequency compared with the β3 agonist single administration group: co-administered with mirabegron 3 mg/kg i.v., distigmine 0.1 mg/kg or acotiamide 200 mg/kg s.c. (FIG. 15); for voiding interval, effect of a single agent: up to 2 hours, distigmine 0.1 mg/kg s.c., acotiamide 100 and 200 mg/kg s.c., mirabegron 3 mg/kg i.v. (FIG. 14)
Protocol: Under isoflurane anesthesia, female rats (strain: Crl:CD (SD), 6 weeks old, Jackson Laboratory Japan, Inc.) were subjected to bladder outlet obstruction surgery to prepare partial bladder outlet obstruction (BOO) rats. The sham-operated group was operated similarly except for the partial BOO. Six weeks after surgery, cystometry was performed while awake. A polyethylene catheter (Becton Dickinson: PE50) for cystometry was inserted into and indwellingly placed in the bladder. The catheter indwelling in the bladder was connected to a pressure transducer (Nihon Kohden Corporation) to measure the intravesical pressure. Physiological saline was injected into the bladder using a syringe pump and changes in intravesical pressure were recorded in PowerLab (ADInstruments).
Distigmine (0.1 mg/kg), acotiamide (100 and 200 mg/kg) or vehicle was subcutaneously administered (5 ml/kg), or a β3-adrenergic receptor agonist (β3 agonist mirabegron, a therapeutic agent for overactive bladder) (3 mg/kg) was intravenously administered (1 mL/kg), and the voiding interval was measured for up to 2 hours.
The β3 agonist mirabegron (3 mg/kg, intravenous administration [1 mL/kg]) was co-administered with distigmine (0.1 mg/kg) or acotiamide (200 mg/kg) by subcutaneous administration (5 mL/kg), and the frequency of NVC was measured.

[6] = tested on: patients with underactive bladder; details: in combination with an α1-receptor blocker, cited from earlier work

SMILES | bladder contraction pressure during voiding (bladder of normal rats) | maximum contraction pressure during voiding (bladder of normal rats) | bladder compliance (bladder of normal rats) | tolerability in the cystometry test at the highest dose (bladder of normal rats) | urine flow rate (normal rats) | induction of cholinergic crisis (hypersecretion, respiratory abnormalities) [1] | leak point pressure (urethral pressure) (urethra of normal rats) | bladder contraction pressure during voiding [2] | maximum contraction pressure during voiding [2] | urine flow rate (maximum urine flow rate and average urine flow rate) [2] | detrusor muscle contraction pressure [3] | drug tolerability at the highest dose [3] | Relative gene expression of Chrm3 (Mean ± SE) [4] | expression level of the bladder M3 receptor after repeated administration [4] | NVC frequency compared with the β3 agonist single administration group [5] | voiding interval, effect of a single agent [5] | also measured
COc1cc(O)c(C(=O)Nc2nc(C(=O)NCCN(C(C)C)C(C)C)cs2)cc1OC [Acotiamide, N-[2-[bis(1-methylethyl)amino]ethyl]-2-[(2-hydroxy-4,5-dimethoxybenzoyl)amino]thiazole-4-carboxamide] | increased | increased | did not affect | well tolerated | increasing | did not induce | did not change | increased | increased | increasing | increased | good tolerability | 107.0 ± 12.9 | did not reduce | similar | had no effect | action on bladder contraction pressure, 200 mg/kg group compared with 30 and 100 mg/kg groups (bladder of normal rats; 200 mg/kg): extremely strong; death cases ([1]; 200 and 300 mg/kg subcutaneous): no death cases; action on the detrusor muscle contraction pressure, 200 mg/kg group compared with 30 and 100 mg/kg groups ([3]; 200 mg/kg): extremely strong; decrease in residual urine volume ([6]; 100 mg orally 3 times a day for 2 weeks): a sufficient decrease in residual urine volume was not obtained; mean value of residual urine volume after administration ([6]; 100 mg orally three times a day for two weeks): ≥ 100 mL
CN(CCCCCCN(C)C(=O)Oc1ccc[n+](C)c1)C(=O)Oc1ccc[n+](C)c1 [Distigmine] | increased | increased | significantly reduced | induced cholinergic crisis | decreased | induced | did not change | increased | increased | decreased | increased | cholinergic crisis | 79.1 ± 11.8 | reduced | increased | significantly shortened | death (animals) ([1]; 0.2 mg/kg subcutaneous): 1 out of 3; death (animals) ([1]; 0.3 mg/kg subcutaneous): 5 out of 6; death (animals) ([1]; 0.4 mg/kg subcutaneous): 3 out of 3
CC(C[N+](C)(C)C)OC(N)=O (stereo not drawn) [bethanechol] | – | – | – | – | – | – | increase | – | – | – | – | – | – | – | – | – | –
Nc1nc(CC(=O)Nc2ccc(CCNC[C@H](O)c3ccccc3)cc2)cs1 [mirabegron] | – | – | – | – | – | – | – | – | – | – | – | – | – | – | – | had no effect | –
